The values below come from ChEMBL document CHEMBL5376018 (RSC Med Chem, 2024).

For data set [1], the system named is rhinovirus B14. The data set can be described thus: Antiviral activity against Human rhinovirus 14 infected in human H1-HeLa cells incubated for 3 days measured by crystal violet staining based plaque counting analysis. To be noted: Rhinovirus B, 72 h.
The subject of data set [2] is rhinovirus A16. The data set can be described thus: Antiviral activity against Human rhinovirus 16 infected in human H1-HeLa cells incubated for 3 days measured by crystal violet staining based plaque counting analysis. As to conditions: Rhinovirus A, 72 h.
In data set [3] the test system is rhinovirus A21. Kind of data set: Antiviral activity against Human rhinovirus A21 infected in human H1-HeLa cells incubated for 3 days measured by crystal violet staining based plaque counting analysis. To be noted: Rhinovirus A, 72 h.
Data set [4] in a line: Selectivity index, ratio of CC50 for cytotoxicity against human H1-HeLa cells infected with 1 MOI human rhinovirus 14 to EC50 for antiviral activity against Human rhinovirus 14 infected in human H1-HeLa cells. As to conditions: H1-HeLa cells infected with human rhinovirus 14, read-out: Ratio CC50/EC50. The data set is classed as toxicity, cell-based.
Data set [5] can be described thus: Selectivity index, ratio of CC50 for cytotoxicity against human H1-HeLa cells infected with 1 MOI human rhinovirus 16 to EC50 for antiviral activity against Human rhinovirus 16 infected in human H1-HeLa cells. In kind it is toxicity, cell-based. To be noted: H1-HeLa cells infected with human rhinovirus 16, read-out: Ratio CC50/EC50.
A short description of data set [6]: Selectivity index, ratio of CC50 for cytotoxicity against human H1-HeLa cells infected with 1 MOI human rhinovirus 21 to EC50 for antiviral activity against Human rhinovirus 21 infected in human H1-HeLa cells. In kind it is toxicity, cell-based. To be noted: H1-HeLa cells infected with human rhinovirus 21, read-out: Ratio CC50/EC50.
Data set [7] concerns H1-HeLa. The data set can be described thus: cells. To be noted: Homo sapiens, 1 h.

The term EC50 denotes the concentration needed to bring the measured effect to its halfway point. Low readings indicate higher potency in that assay, high ones lower potency in that assay. By CC50 is commonly meant the concentration giving 50% cytotoxicity. In the case of `CC(=O)Nc1nc(C)c(-c2ccc(Cl)c(S(=O)(=O)NCCO)c2)s1`, the concentration for a half-maximal effect (EC50) in data set [1] was 770 nM; in data set [2], 840 nM; in data set [3], 1600 nM. For the same molecule, the selectivity ratio in data set [4] came out at 21; in data set [5], 19; in data set [6], 10. In addition, in data set [7], the 50% cytotoxic concentration (CC50) turned out to be 15800 nM.

On to `CCOC(=O)/C=C/[C@H](C[C@@H]1CCNC1=O)NC(=O)[C@@H](CC(=O)[C@@H](NC(=O)c1cc(C)on1)C(C)C)Cc1ccc(F)cc1`, for which the concentration for a half-maximal effect (EC50) in data set [1] amounted to 58 nM; in data set [2], 80 nM; in data set [3], 95 nM. Further, the cytotoxic concentration (CC50) in data set [7] is above 100000 nM.

On to `COCCNS(=O)(=O)c1cc(-c2sc(NC(=O)C(C)(C)C)nc2C)ccc1OC`, for which the EC50 was determined as 1300 nM in data set [1], 790 nM in data set [2] and 1500 nM in data set [3]. Also, the selectivity ratio in data set [4] is above 15; in data set [5], above 25; in data set [6], above 13. This molecule also had a CC50 in data set [7] above 20000 nM.

With `COc1ccc(-c2sc(NC(=O)C(C)(C)C)nc2C)cc1S(=O)(=O)NCCNC(C)=O`, the concentration for a half-maximal effect (EC50) in data set [1] came out at 4400 nM; in data set [2], 3300 nM; in data set [3] it was 9100 nM. Moreover, the selectivity ratio in data set [4] was above 5; in data set [5] it was above 6; in data set [6], above 2. The cytotoxic concentration (CC50) in data set [7] is above 20000 nM.

As to `COc1ccc(-c2sc(NC(C)=O)nc2C)cc1S(=O)(=O)CCN1CCOCC1`, the EC50 in data set [1] is 1400 nM; in data set [2], 1300 nM; in data set [3], 3200 nM. For the same molecule, the figures for the selectivity ratio in data set [4], in data set [5] and in data set [6] were above 14, above 15 and above 6, respectively. In data set [7], the CC50 was above 20000 nM.

As to `COc1ccc(-c2sc(NC(=O)C(C)(C)C)nc2C)cc1S(=O)(=O)CCc1ccncc1`, the EC50 in data set [1] is 1300 nM; in data set [2] it was 1000 nM; in data set [3] it was 1700 nM. Besides, the selectivity ratio was above 10 in data set [4], above 13 in data set [5] and above 7 in data set [6]. In addition, the CC50 in data set [7] is 12500 nM.

As for `COc1ccc(-c2sc(NC(=O)C(C)(C)C)nc2C)cc1S(=O)(=O)NCc1cccc(S(C)(=O)=O)c1`, the values for the 50% effective concentration (EC50) in data set [1], in data set [2] and in data set [3] were 3800 nM, 2000 nM and 4500 nM, respectively. The figures for the selectivity ratio in data set [4], in data set [5] and in data set [6] were above 5, above 10 and above 4, respectively. The half-maximal cytotoxic concentration (CC50) in data set [7] was above 20000 nM.

Consider `COc1ccc(-c2sc(NC(=O)C(C)(C)C)nc2C)cc1S(=O)(=O)NCCN1CCOCC1`, for which the figures for the EC50 in data set [1], in data set [2] and in data set [3] were 1000 nM, 560 nM and 1800 nM, respectively. Besides, the selectivity ratio in data set [4] was above 20; in data set [5], above 36; in data set [6], above 11. In data set [7], this molecule had a CC50 above 20000 nM.

As for `COc1ccc(-c2sc(NC(C)=O)nc2C)cc1`, the concentration giving a half-maximal response (EC50) was found to be 14500 nM in data set [1], 12000 nM in data set [2] and 17700 nM in data set [3]. Further, the selectivity ratio in data set [4] was above 1; in data set [5], above 2; in data set [6] it was above 1. In addition, in data set [7], the CC50 was above 20000 nM.
